From patent US12281123B2, “Benzoxazinone compounds as KLK5/7 dual inhibitors” (MOLECULAR SKIN THERAPEUTICS, INC., priority 2019, dated 2025)
Entries after “also recorded” stand apart in the source; their conditions may differ. Marks after values point to notes of the source that are not given here.

Tested on: KLK proteases in human skin extract
Test: Inhibition of protease activity in human skin extract
Assay type: biochemical
Description: Materials: The peptide substrates PS-01 (YRSR-pNA Tyr-Arg-Ser-Arg-pNA) (SEQ ID NO. 1) and PS-02 (Lys-His-Leu-Tyr-pNA) (SEQ ID NO. 2) were synthesized by Zamboni Chemical Solutions (Montreal, Canada). Human epidermis samples were obtained from Biopredic (Saint-Grégoire, France). The BCA protein assay kit was bought from VWR.
Preparation of skin extract: The epidermis was frozen and lyophilized. A sample of 15 mg lyophilized epidermis was immersed in 1 mL high salt buffer (100 mM Tris, 5 mM EDTA, 2M KCl, pH 8), frozen twice in dry ice and thawed. After incubation overnight at 4° C. and addition of six 2.4 mm metal beads, the sample was homogenized in a Bertin Precellys Homogenizer (Atkinson, NH) three times at […] for 20 seconds each and cooled in between for 30 seconds. After centrifugation at maximal speed in a desktop minifuge, the protein concentration of the supernatant was determined by BCA assay (˜0.5 mg/mL).
Inhibition of protease activity in skin extract: Stock solutions of 200, 66, 22 and 0 μM of the tested compound in DMSO were prepared. Substrate stocks of 1100 μM PS-01 and PS-02 were prepared by dissolving in water. The wells of a 384 well plate was filled with 50 μL 2× assay buffer (see above) and then 45 μL substrate stock and 5 μL of the test compound were added. The reaction was started by addition of 10 μL skin extract for the substrate PS-02 and 5 μL for the substrate PS-01. The substrate hydrolysis was monitored in multi-well plate reader at 405 nm.
Chromogenic substrate cleavage progressions of Compounds 1.001, 1.002, and 14 were tested according to human stratum corneum extract assay of Example 4 using KLK5 and KLK7 preferred chromogenic peptide substrates (PS-01 and PS-02). The proteolytic cleavage of KLK5 selective substrate in skin extract by Compounds 1.001, 1.002, and 14 are compared and shown in FIGS. 4A-4D. NSK refers to extract from skin freshly prepared; and OSK refers to extract from skin post freeze thaw.

[1] = human skin extract, Conc 3.3 μM

CS(=O)(=O)c1cc(CO)ccc1-c1nc2cc3c(cc2c(=O)o1)OCCO3 [Compound 1.001, 2-(4-(Hydroxymethyl)-2-(methylsulfonyl)phenyl)-7,8-dihydro-4H-[1,4]dioxino[2′,3′:4,5]benzo[1,2-d][1,3]oxazin-4-one]
Inhibition of proteolytic activity of skin extract, in words (compared to compounds 14 and 1.002, FIGS. 4A-4D (NSK), KLK5 selective substrate): more potent inhibition of proteolytic activity; also recorded: more potent inhibitor of the proteolytic activity of skin extract | Initial rate of proteolytic activity (human skin extract, Conc 1 μM): 0.04* Absorbance405/min | Initial rate of substrate hydrolysis (human skin extract, Conc 1 μM): 0.02* Absorbance405/min | Initial rate of proteolytic activity [1]: 0.07* Absorbance405/min | Initial rate of substrate hydrolysis [1]: 0.04* Absorbance405/min | Rate in Skin Assay (human skin extract, compound concentration not given): 0.004* Absorbance405/min
